Reference: patent EP0207497A2, “Quinolonecarboxylic acid derivative and process for its preparation” (KYORIN PHARMACEUTICAL CO., LTD., priority 1985, dated 1987)
Converted amounts (≈) assume the structure as drawn.

How the values were obtained:
Format in all cases: cell-based
[1] = system: Bacillus subtilis PCI 219; assay: Antibacterial spectrum, MIC determination (method of Japan Society of Chemotherapy); details: Bacillus subtilis, PCI219
[2] = system: Staphylococcus aureus 209 P; assay: as above; details: Staphylococcus aureus, 209P
S. aureus Smith = assay: as above; details: Staphylococcus aureus
[3] = system: S. aureus IID 670 (Terajima); assay: as above; details: Staphylococcus aureus, IID670
S. epidermidis IID 866 = assay: as above; details: Staphylococcus epidermidis, IID866
[4] = system: Streptococcus pyogenes (S-8); assay: as above; details: Streptococcus pyogenes
[5] = system: Escherichia coli NIHJ JC-2; assay: as above; details: NIHJJC2; Escherichia coli NIHJ JC-2, Gram -, 10^6 cells/ml
E. coli ATCC 10536 = assay: as above; details: Escherichia coli, ATCC10536
E. coli ML 4707 = assay: as above; details: Escherichia coli, ML4707
[6] = system: Proteus vulgaris IFO 3167; assay: as above; details: Proteus vulgaris, IFO3167
P. mirabilis IID 994 = assay: as above; details: Proteus mirabilis, IID994
[7] = system: Morganella morganii IID 602; assay: as above; details: IID602; Morganella morganii IID 602, Gram -, 10^6 cells/ml
[8] = system: Klebsiella pneumoniae KY(GN)6445; assay: as above; details: Klebsiella pneumoniae
K. pneumoniae 1-220S = assay: as above; details: Klebsiella pneumoniae, 1220S
[9] = system: Citrobacter freundii IID 976; assay: as above; details: Citrobacter freundii, IID976
[10] = system: Serratia marcescens IID 618; assay: as above; details: Serratia marcescens, IID618
Shigella sonnei IID 969 = assay: as above; details: IID969; Shigella sonnei IID 969, Gram -, 10^6 cells/ml
Procedure: Minimal inhibitory concentrations (MICs) were determined in accordance with the method recommended by Japan Society of Chemotherapy.

[11] = system: Salmonella enteritidis IID 604; assay: as above; details: Salmonella enterica
P. cepacia GIFU 518 = assay: as above; details: Burkholderia cepacia, GIFU518
P. maltophilia GIFU 2491 = assay: as above; details: Stenotrophomonas maltophilia, GIFU2491
[12] = system: Yersinia enterocolitica IID 981; assay: as above; details: Yersinia enterocolitica, IID981
[13] = system: Acinetobacter anitratus IID 876; assay: as above; details: Acinetobacter calcoaceticus, IID876
[14] = system: Alcaligenes faecalis 0114002; assay: as above; details: Alcaligenes faecalis 0114002, Gram -, 10^6 cells/ml
[15] = system: Bacteroides fragilis GM 7000; assay: as above; details: Bacteroides fragilis, GM7000
B. fragilis 0558 = assay: as above; details: Bacteroides fragilis, 0558
B. fragilis 25285 = assay: as above; details: Bacteroides fragilis, 25285
B. distasonis 8503 = assay: as above; details: Parabacteroides distasonis, 8503
[16] = system: B. thetaiotaomicron (0661); assay: as above; details: Bacteroides thetaiotaomicron
B. vulgatus KYA 29327 = assay: as above; details: Phocaeicola vulgatus, KYA29327
[17] = system: Fusobacterium mortiferum 4249; assay: as above; details: Fusobacterium mortiferum, 4249
[18] = system: Propionibacterium acens 11828; assay: as above; details: Propionibacterium, 11828
[19] = system: Peptococcus magnus KY 017; assay: as above; details: Finegoldia magna, KY017
C. perfringens KYA 13123 = assay: microbe, parasite or virus in culture; details: Clostridium perfringens, KYA13123
C. ramosum = assay: Antibacterial spectrum, MIC determination (method of Japan Society of Chemotherapy); details: Thomasclavelia ramosa
[20] = system: Peptostreptococcus anaerobius KYA 27337; assay: as above; details: Peptostreptococcus anaerobius, KYA27337
Pst. micros UPI 5464-1 = assay: as above; details: Parvimonas micra, UPI54641; Pst. micros UPI 5464-1, Gram +, 10^6 cells/ml
[21] = system: Veillonella parvula KYA 10790; assay: as above; details: KYA10790; Veillonella parvula KYA 10790, Gram -, 10^6 cells/ml

O=C(O)c1cn(C2CC2)c2cc(N3CCNCC3)c(F)cc2c1=O [CPFX, ciprofloxacin, reference compound]
MIC [1]: 0.05 µg/mL (≈ 0.151 µM) | MIC [2]: 0.2 µg/mL (≈ 0.604 µM) | MIC (S. aureus Smith): 0.39 µg/mL (≈ 1.18 µM) | MIC [3]: 0.2 µg/mL (≈ 0.604 µM) | MIC (S. epidermidis IID 866): 0.2 µg/mL (≈ 0.604 µM) | MIC [4]: 0.39 µg/mL (≈ 1.18 µM) | MIC [5]: 0.0063 µg/mL (≈ 0.019 µM) | MIC (E. coli ATCC 10536): 0.0125 µg/mL (≈ 0.0377 µM) | MIC (E. coli ML 4707): 0.0125 µg/mL (≈ 0.0377 µM) | MIC [6]: 0.0125 µg/mL (≈ 0.0377 µM) | MIC (P. mirabilis IID 994): 0.0125 µg/mL (≈ 0.0377 µM) | MIC [7]: 0.025 µg/mL (≈ 0.0754 µM) | MIC [8]: 0.0125 µg/mL (≈ 0.0377 µM) | MIC (K. pneumoniae 1-220S): 0.025 µg/mL (≈ 0.0754 µM) | MIC [9]: 0.0063 µg/mL (≈ 0.019 µM) | MIC [10]: 0.025 µg/mL (≈ 0.0754 µM) | MIC (Shigella sonnei IID 969): 0.0063 µg/mL (≈ 0.019 µM) | MIC [11]: 0.025 µg/mL (≈ 0.0754 µM) | MIC (P. cepacia GIFU 518): 0.39 µg/mL (≈ 1.18 µM) | MIC (P. maltophilia GIFU 2491): 0.39 µg/mL (≈ 1.18 µM) | MIC [12]: 0.025 µg/mL (≈ 0.0754 µM) | MIC [13]: 0.1 µg/mL (≈ 0.302 µM) | MIC [14]: 0.39 µg/mL (≈ 1.18 µM) | MIC [15]: 6.25 µg/mL (≈ 18.9 µM) | MIC (B. fragilis 0558): 3.13 µg/mL (≈ 9.45 µM) | MIC (B. fragilis 25285): 3.13 µg/mL (≈ 9.45 µM) | MIC (B. distasonis 8503): 6.25 µg/mL (≈ 18.9 µM) | MIC [16]: > 12.5 µg/mL | MIC (B. vulgatus KYA 29327): > 12.5 µg/mL | MIC [17]: 1.56 µg/mL (≈ 4.71 µM) | MIC [18]: 12.5 µg/mL (≈ 37.7 µM) | MIC [19]: 0.39 µg/mL (≈ 1.18 µM) | MIC (C. perfringens KYA 13123): 0.39 µg/mL (≈ 1.18 µM) | MIC (C. ramosum): 12.5 µg/mL (≈ 37.7 µM) | MIC [20]: 1.56 µg/mL (≈ 4.71 µM) | MIC (Pst. micros UPI 5464-1): 0.2 µg/mL (≈ 0.604 µM) | MIC [21]: 0.2 µg/mL (≈ 0.604 µM)
